Source: PubChem BioAssay (NCI)
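The compound was tested at five concentrations on cells cultured in 96-well plates, with a 48-hour exposure period. TGI denotes the concentration required for complete inhibition of growth.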

Key:
Assay in all cases: DTP human tumour cell line panel, 48 h
RPMI-8226 leukemia = test system: RPMI-8226 leukemia
UO-31 renal = test system: UO-31 renal
CCRF-CEM leukemia = test system: CCRF-CEM leukemia
M14 melanoma = test system: M14 melanoma
SF-539 CNS = test system: SF-539 CNS
UACC-257 melanoma = test system: UACC-257 melanoma
IGROV1 ovarian = test system: IGROV1 ovarian
A498 renal = test system: A498 renal
HOP-62 NSCLC = test system: HOP-62 NSCLC
MDA-MB-435 = test system: MDA-MB-435
OVCAR-4 ovarian = test system: OVCAR-4 ovarian
U251 CNS = test system: U251 CNS
K-562 leukemia = test system: K-562 leukemia
CAKI-1 renal = test system: CAKI-1 renal
MOLT-4 leukemia = test system: MOLT-4 leukemia
MCF7 breast = test system: MCF7 breast
RXF 393 renal = test system: RXF 393 renal
MALME-3M melanoma = test system: MALME-3M melanoma
OVCAR-8 ovarian = test system: OVCAR-8 ovarian
OVCAR-3 ovarian = test system: OVCAR-3 ovarian
NCI-H23 lung = test system: NCI-H23 lung
NCI-H226 lung = test system: NCI-H226 lung
SN12C renal = test system: SN12C renal
SF-268 CNS = test system: SF-268 CNS
UACC-62 melanoma = test system: UACC-62 melanoma
T-47D breast = test system: T-47D breast
DU-145 prostate = test system: DU-145 prostate
HOP-92 NSCLC = test system: HOP-92 NSCLC
786-0 renal = test system: 786-0 renal
NCI/ADR-RES ovarian = test system: NCI/ADR-RES ovarian
SK-OV-3 ovarian = test system: SK-OV-3 ovarian
SK-MEL-28 melanoma = test system: SK-MEL-28 melanoma
SR leukemia = test system: SR leukemia
SNB-75 CNS = test system: SNB-75 CNS
ACHN renal = test system: ACHN renal
EKVX NSCLC = test system: EKVX NSCLC
SK-MEL-5 melanoma = test system: SK-MEL-5 melanoma
TK-10 renal = test system: TK-10 renal
PC-3 prostate = test system: PC-3 prostate
HT29 colon = test system: HT29 colon
NCI-H460 lung = test system: NCI-H460 lung
SF-295 CNS = test system: SF-295 CNS
HCT-116 colon = test system: HCT-116 colon
OVCAR-5 ovarian = test system: OVCAR-5 ovarian
MDA-MB-231 breast = test system: MDA-MB-231 breast
HCT-15 colon = test system: HCT-15 colon
MDA-N = test system: MDA-N
COLO 205 colon = test system: COLO 205 colon
SW-620 colon = test system: SW-620 colon
NCI-H522 lung = test system: NCI-H522 lung
SK-MEL-2 melanoma = test system: SK-MEL-2 melanoma
BT-549 breast = test system: BT-549 breast
KM12 colon = test system: KM12 colon
HCC-2998 colon = test system: HCC-2998 colon
SNB-19 CNS = test system: SNB-19 CNS
A549 NSCLC = test system: A549 NSCLC
LOX IMVI melanoma = test system: LOX IMVI melanoma
HL-60(TB) leukemia = test system: HL-60(TB) leukemia

Measured: TGI

O=C(O)c1cc(Cl)cc2c1NC1(N2)C(=O)Nc2ccccc21 (centres undefined)
not listed: HL-60(TB) leukemia
> 100 µM: all other assays above

O=C(N/N=C/c1ccc(Cl)cc1)c1cc(I)cc(I)c1O
not listed: MALME-3M melanoma | SF-268 CNS | UACC-62 melanoma | NCI-H460 lung | NCI-H522 lung | HCC-2998 colon
> 100 µM: all other assays above
